Here are results for nine compounds from patent publication US20260022143A1, “Cyclic Peptide Inhibitors of IL-23” (JANSSEN PHARMACEUTICA NV, priority 2022, published 2026).

Data set [1] in a line: Exposed Polar Surface Area (EPSA). It counts as physicochemical. The conditions noted are these: SFC on Chirex 3014 column; sample 1 mM DMSO stock; read-out: EPSA. The essentials: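 SFC retention on a Chirex 3014 (S-valine/(R)-1-(α-naphthyl)ethylamine) column at 35 °C, 4 mL/min, 14 MPa outlet, 5–60% methanol/20 mM ammonium formate gradient in CO2. Retention times converted to EPSA (Å²) via linear calibration with 8 standards; samples from 1 mM DMSO stock, run in duplicate.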

The next data set addresses T1, IL-23R (Homo sapiens, UniProt Q5VWK5).
T1 construct: host or cells: HEK293
T1 sequence (Q5VWK5 24-629): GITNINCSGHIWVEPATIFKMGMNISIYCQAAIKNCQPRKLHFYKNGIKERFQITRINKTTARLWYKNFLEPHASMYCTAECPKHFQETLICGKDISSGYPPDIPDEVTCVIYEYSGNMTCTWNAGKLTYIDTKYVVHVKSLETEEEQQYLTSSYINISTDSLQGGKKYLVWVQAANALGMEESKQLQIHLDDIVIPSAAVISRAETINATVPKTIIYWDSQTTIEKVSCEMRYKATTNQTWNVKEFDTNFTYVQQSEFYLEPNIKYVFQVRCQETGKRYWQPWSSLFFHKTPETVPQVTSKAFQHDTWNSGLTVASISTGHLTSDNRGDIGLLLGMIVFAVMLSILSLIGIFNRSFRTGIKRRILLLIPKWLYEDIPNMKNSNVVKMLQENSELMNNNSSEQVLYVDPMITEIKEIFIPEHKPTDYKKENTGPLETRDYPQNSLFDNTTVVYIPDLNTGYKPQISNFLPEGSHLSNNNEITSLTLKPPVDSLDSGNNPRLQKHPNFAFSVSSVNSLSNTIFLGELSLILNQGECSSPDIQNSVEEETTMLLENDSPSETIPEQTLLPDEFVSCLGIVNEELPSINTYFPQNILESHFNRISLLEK
The experiment in a line: IL23R Reporter Assay. The conditions noted are these: HEK293 cells containing IL-23R, IL-12RP1 and STAT-inducible firefly luciferase reporter; 10 ng/mL IL-23 (EC90); 5 h at 37° C.; read-out: IL23R Reporter Assay. The data set is classed as cell-based.

pIC50: −log10 of the molar value. Starred links: 1 amine or outer side, 2 acyl side, 3 side chain; linkers in the order of their positions; H or OH if unused. Positions of bridges follow the written chain, without caps; N, C: chain ends. Non-standard residues stand in square brackets, D forms with d. Residues, ends and D or L forms follow the SMILES beside them. *: point of attachment. Me3N+(CH2)2O(CH2)2O(CH2)2CO = C[N+](C)(C)CCOCCOCCC(=O)*; CH2CH2OCH2CH2OCH2CH2NMe3+ = C[N+](C)(C)CCOCCOCC*; Trp(7-Me) = Cc1cccc2c(C[C@H](N)C(=O)O)c[nH]c12; Decanoyl(3,6,9-trioxa) = COCCOCCOCC(=O)*; CH2CH2OCH2CH2NMe3+ = C[N+](C)(C)CCOCC*; X60 = CCCCCCCC[N+](C)(C)CCc1cn(CC*)nn1; 2Nal = N[C@@H](Cc1ccc2ccccc2c1)C(=O)O; AEF = NCCOc1ccc(C[C@H](N)C(=O)O)cc1; X24 = C[N+](C)(CCN[*:1])CC(=O)[*:2]; X22 = CN1CC[N+](C)(CCOCCOCC*)CC1; 3Pal = N[C@@H](Cc1cccnc1)C(=O)O; Lys(Me) = CNCCCC[C@H](N)C(=O)O; Pen = CC(C)(S)[C@H](N)C(=O)O; X49 = O=C(CCCCCCCC*)N1CCCCC1; X52 = C[N+](C)(C)CCOCCNCC*; Thp = NC1(C(=O)O)CCOCC1; X12 = C[N+](C)(C)CCC*; Sar = CNCC(=O)O

Regarding `CC(=O)N(C)CCCC[C@@H]1NC(=O)[C@H](Cc2c[nH]c3c(C)cccc23)NC(=O)[C@H]([C@@H](C)O)NC(=O)[C@H](CC(=O)N(C)C)NC(=O)[C@@H](NC(=O)CCOCCOCC[N+](C)(C)C)C(C)(C)SSC(C)(C)[C@@H](C(=O)N[C@@H](Cc2ccc(OCCOCCOCC[N+]3(C)CCN(C)CC3)cc2)C(=O)N[C@@H](Cc2ccc3ccccc3c2)C(=O)NC2(C(=O)N[C@@H](CCCCN(C)C(C)=O)C(=O)N[C@@H](CC(N)=O)C(=O)N[C@@H](Cc3cccnc3)C(=O)N(C)CC(=O)N(C)C)CCOCC2)NC1=O` [compound 224, cPEG3aCO-Pen(3)-N(N(Me)2)-T-7MeW-K(NMeAc)-Pen(3)-MPzPEG3F-2Nal-THP-K(NMeAc)-N-3Pya-Sar-CON(Me)2] ({Me3N+(CH2)2O(CH2)2O(CH2)2CO}-[Pen]D(NMe2)T[Trp(7-Me)][Lys(Me)](Ac)[Pen]Y(X22)[2Nal][Thp][Lys(Me)](Ac)N[3Pal][Sar]-NMe2; disulfide 1-6), the EPSA in data set [1] is 139 A^2. On IL-23R, the pIC50 was 8.52.
For `COCCOCCOCC(=O)NCC[N+](C)(C)CC(=O)N[C@@H]1C(=O)N[C@@H](CC(=O)N(C)C)C(=O)N[C@@H]([C@@H](C)O)C(=O)N[C@@H](Cc2c[nH]c3c(C)cccc23)C(=O)N[C@@H](CCCCN(C)C(C)=O)C(=O)N[C@H](C(=O)N[C@@H](Cc2ccc(OCCOCCOCC[N+](C)(C)C)cc2)C(=O)N[C@@H](Cc2ccc3ccccc3c2)C(=O)NC2(C(=O)N[C@@H](CCCCN(C)C(C)=O)C(=O)N[C@@H](CC(N)=O)C(=O)N[C@@H](Cc3cccnc3)C(=O)N(C)CC(=O)N(C)C)CCOCC2)C(C)(C)SSC1(C)C` [compound 225, mPEG3CO-SP6-Pen(3)-N(N(Me)2)-T-7MeW-K(NMeAc)-Pen(3)-APEG3F-2Nal-THP-K(NMeAc)-N-3Pya-Sar-CON(Me)2] ({Decanoyl(3,6,9-trioxa)}-[X24][Pen]D(NMe2)T[Trp(7-Me)][Lys(Me)](Ac)[Pen]Y(CH2CH2OCH2CH2OCH2CH2NMe3+)[2Nal][Thp][Lys(Me)](Ac)N[3Pal][Sar]-NMe2; disulfide 2-7), in that order: 136 A^2 and 8.39.
Consider `CC(=O)N(C)CCCC[C@@H]1NC(=O)[C@H](Cc2c[nH]c3c(C)cccc23)NC(=O)[C@H]([C@@H](C)O)NC(=O)[C@H](CC(=O)N(C)C)NC(=O)[C@@H](NC(=O)CCOCCOCC[N+](C)(C)C)C(C)(C)SSC(C)(C)[C@@H](C(=O)N[C@@H](Cc2ccc(OCCC[N+](C)(C)C)cc2)C(=O)N[C@@H](Cc2ccc3ccccc3c2)C(=O)NC2(C(=O)N[C@@H](CCCCN(C)C(C)=O)C(=O)N[C@@H](CC(N)=O)C(=O)N[C@@H](Cc3cccnc3)C(=O)N(C)CC(=O)N(C)C)CCOCC2)NC1=O` [compound 229, cPEG3aCO-Pen(3)-N(N(Me)2)-T-7MeW-K(NMeAc)-Pen(3)-TMA3F-2Nal-THP-K(NMeAc)-N-3Pya-Sar-CON(Me)2] ({Me3N+(CH2)2O(CH2)2O(CH2)2CO}-[Pen]D(NMe2)T[Trp(7-Me)][Lys(Me)](Ac)[Pen]Y(X12)[2Nal][Thp][Lys(Me)](Ac)N[3Pal][Sar]-NMe2; disulfide 1-6), for which, in data set [1], the EPSA was 145 A^2. In addition, on IL-23R, the pIC50 was 7.72.
With `CC(=O)N[C@H](COCCOCC[N+](C)(C)C)C(=O)N[C@@H]1C(=O)N[C@@H](CC(=O)N(C)C)C(=O)N[C@@H]([C@@H](C)O)C(=O)N[C@@H](Cc2c[nH]c3c(C)cccc23)C(=O)N[C@@H](CCCCN(C)C(C)=O)C(=O)N[C@H](C(=O)N[C@@H](Cc2ccc(OCCOCCOCC[N+](C)(C)C)cc2)C(=O)N[C@@H](Cc2ccc3ccccc3c2)C(=O)NC2(C(=O)N[C@@H](CCCCN(C)C(C)=O)C(=O)N[C@@H](CC(N)=O)C(=O)N[C@@H](Cc3cccnc3)C(=O)N(C)CC(=O)N(C)C)CCOCC2)C(C)(C)SSC1(C)C` [compound 232, MeCO-APEG2ser-Pen(3)-N(N(Me)2)-T-7MeW-K(NMeAc)-Pen(3)-APEG3F-2Nal-THP-K(NMeAc)-N-3Pya-Sar-CON(Me)2], the EPSA in data set [1] stood at 140 A^2. Besides, the pIC50 at IL-23R was 8.47.
Regarding `CC(=O)NCCCC[C@H](NC(=O)C1(NC(=O)[C@H](Cc2ccc3ccccc3c2)NC(=O)[C@H](Cc2ccc(OCCOCCOCC[N+](C)(C)C)cc2)NC(=O)[C@H]2NC(=O)[C@H](CCCCN(C)C(C)=O)NC(=O)[C@H](Cc3c[nH]c4c(C)cccc34)NC(=O)[C@H]([C@@H](C)O)NC(=O)[C@H](CC(=O)N(C)C)NC(=O)[C@@H](NC(=O)CCOCCOCC[N+](C)(C)C)C(C)(C)SSC2(C)C)CCOCC1)C(=O)N[C@@H](CC(N)=O)C(=O)N[C@@H](Cc1cccnc1)C(=O)N(C)CC(=O)N(C)C` [compound 233, cPEG3aCO-Pen(3)-N(N(Me)2)-T-7MeW-K(NMeAc)-Pen(3)-APEG3F-2Nal-THP-K(Ac)-N-3Pya-Sar-CON(Me)2] ({Me3N+(CH2)2O(CH2)2O(CH2)2CO}-[Pen]D(NMe2)T[Trp(7-Me)][Lys(Me)](Ac)[Pen]Y(CH2CH2OCH2CH2OCH2CH2NMe3+)[2Nal][Thp]K(Ac)N[3Pal][Sar]-NMe2; disulfide 1-6), the EPSA in data set [1] was found to be 141 A^2. Moreover, the pIC50 on IL-23R was 8.52.
Consider `CC(=O)N(C)CCCC[C@@H]1NC(=O)[C@H](Cc2c[nH]c3c(C)cccc23)NC(=O)[C@H]([C@@H](C)O)NC(=O)[C@H](CC(=O)N(C)C)NC(=O)[C@@H](NC(=O)CCOCCOCC[N+](C)(C)C)C(C)(C)SSC(C)(C)[C@@H](C(=O)N[C@@H](Cc2ccc(OCCNCCOCC[N+](C)(C)C)cc2)C(=O)N[C@@H](Cc2ccc3ccccc3c2)C(=O)NC2(C(=O)N[C@@H](CCCCN(C)C(C)=O)C(=O)N[C@@H](CC(N)=O)C(=O)N[C@@H](Cc3cccnc3)C(=O)N(C)CC(=O)N(C)C)CCOCC2)NC1=O` [compound 238, cPEG3aCO-Pen(3)-N(N(Me)2)-T-7MeW-K(NMeAc)-Pen(3)-AEF(PEG2a)-2Nal-THP-K(NMeAc)-N-3Pya-Sar-CON(Me)2] ({Me3N+(CH2)2O(CH2)2O(CH2)2CO}-[Pen]D(NMe2)T[Trp(7-Me)][Lys(Me)](Ac)[Pen]Y(X52)[2Nal][Thp][Lys(Me)](Ac)N[3Pal][Sar]-NMe2; disulfide 1-6), for which the EPSA in data set [1] turned out to be 145 A^2. In addition, the pIC50 on IL-23R was 8.46.
For `CC(=O)N(C)CCCC[C@@H]1NC(=O)[C@H](Cc2c[nH]c3c(C)cccc23)NC(=O)[C@H]([C@@H](C)O)NC(=O)[C@H](CC(=O)N(C)C)NC(=O)[C@@H](NC(=O)CCOCCOCC[N+](C)(C)C)C(C)(C)SSC(C)(C)[C@@H](C(=O)N[C@@H](Cc2ccc(OCCCCCCCCC(=O)N3CCCCC3)cc2)C(=O)N[C@@H](Cc2ccc3ccccc3c2)C(=O)NC2(C(=O)N[C@@H](CCCCN(C)C(C)=O)C(=O)N[C@@H](CC(N)=O)C(=O)N[C@@H](Cc3cccnc3)C(=O)N(C)CC(=O)N(C)C)CCOCC2)NC1=O` [compound 242, cPEG3aCO-Pen(3)-N(N(Me)2)-T-7MeW-K(NMeAc)-Pen(3)-YC8COPip-2Nal-THP-K(NMeAc)-N-3Pya-Sar-CON(Me)2] ({Me3N+(CH2)2O(CH2)2O(CH2)2CO}-[Pen]D(NMe2)T[Trp(7-Me)][Lys(Me)](Ac)[Pen]Y(X49)[2Nal][Thp][Lys(Me)](Ac)N[3Pal][Sar]-NMe2; disulfide 1-6), in that order: 145 A^2 and 7.60.
Turning to `CC(=O)N(C)CCCC[C@H](NC(=O)C1(NC(=O)[C@H](Cc2ccc3ccccc3c2)NC(=O)[C@H](Cc2ccc(OCCN)cc2)NC(=O)[C@H]2NC(=O)[C@H](COCCOCC[N+](C)(C)C)NC(=O)[C@H](Cc3c[nH]c4c(C)cccc34)NC(=O)[C@H]([C@@H](C)O)NC(=O)[C@H](CC(=O)N(C)C)NC(=O)[C@@H](NC(=O)CCOCCOCC[N+](C)(C)C)C(C)(C)SSC2(C)C)CCOCC1)C(=O)N[C@@H](CC(N)=O)C(=O)N[C@@H](Cc1cccnc1)C(=O)N(C)CC(=O)N(C)C` [compound 245, cPEG3aCO-Pen(3)-N(N(Me)2)-T-7MeW-APEG2Ser-Pen(3)-AEF-2Nal-THP-K(NMeAc)-N-3Pya-Sar-CON(Me)2] ({Me3N+(CH2)2O(CH2)2O(CH2)2CO}-[Pen]D(NMe2)T[Trp(7-Me)]S(CH2CH2OCH2CH2NMe3+)[Pen][AEF][2Nal][Thp][Lys(Me)](Ac)N[3Pal][Sar]-NMe2; disulfide 1-6), the EPSA in data set [1] amounted to 148 A^2. For the same compound, the pIC50 at IL-23R was 7.38.
On to `CCCCCCCC[N+](C)(C)CCc1cn(CCOc2ccc(C[C@H](NC(=O)[C@H]3NC(=O)[C@H](CCCCNC(C)=O)NC(=O)[C@H](Cc4c[nH]c5c(C)cccc45)NC(=O)[C@H]([C@@H](C)O)NC(=O)[C@H](CC(N)=O)NC(=O)[C@@H](NC(C)=O)C(C)(C)SSC3(C)C)C(=O)N[C@@H](Cc3ccc4ccccc4c3)C(=O)NC3(C(=O)N[C@@H](CCCCNC(C)=O)C(=O)N[C@@H](CC(N)=O)C(=O)N[C@@H](Cc4cccnc4)C(=O)N(C)CC(N)=O)CCOCC3)cc2)nn1` [compound 250] (Ac-[Pen]NT[Trp(7-Me)]K(Ac)[Pen]Y(X60)[2Nal][Thp]K(Ac)N[3Pal][Sar]-NH2; disulfide 1-6 (inferred)), for which the EPSA in data set [1] was 146 A^2. The pIC50 at IL-23R was 8.16.
